In PubChem BioAssay AID1259411 (Chemical Carcinogenesis Research Information System (CCRIS), 2018):
Active and inactive are the calls of the source. The rule behind the calls is not given here.

System: rodent carcinogenicity bioassays, tumor incidence
Assay: CCRIS carcinogenicity studies
How it was run: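 NCI-built, expert-reviewed records of carcinogenicity and related test outcomes (mutagenicity, tumor promotion/inhibition) compiled from published and report sources, historical span 1985-2011, not updated.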

Question: What does the source list for `Cc1c2ccccc2cc2c1ccc1ccccc12`?
Answer: carcinogen call (Species: MOUSE, Strain/Sex: ALBINO/FEMALE, Route: DERMAL, Dose: 70 UG IN 0.025 ML ACETONE 2/WK FOR 20 WK, Tumor Site: Type of Lesion: INTEGUMENTARY SYSTEM (SKIN): CARCINOMA): active; positive; carcinogen call (Species: MOUSE, Strain/Sex: ALBINO/FEMALE, Route: SUBCUTANEOUS, Dose: 0.1 ML OF 1 MG IN TRICAPRYLIN ONCE, Tumor Site: Type of Lesion: INJECTION SITE: SARCOMA): active; positive; carcinogen call (Species: MOUSE, Strain/Sex: ALBINO/FEMALE, Route: SUBCUTANEOUS, Dose: 0.25, 1.0 MG IN 0.1 ML TRICAPRYLIN ONCE, Tumor Site: Type of Lesion: INJECTION SITE: SARCOMA): active; positive; carcinogen call (Species: MOUSE, Strain/Sex: C57BL/MALE,FEMALE, Route: SUBCUTANEOUS, Dose: 1 MG IN 0.1 ML ARACHIS OIL 1/WK FOR 10 WK, Tumor Site: Type of Lesion: INJECTION SITE): active; positive; carcinogen call (Species: RAT, Strain/Sex: ALBINO/MALE, Route: SUBCUTANEOUS, Dose: 2.0 MG IN 0.25 ML TRICAPRYLIN ONCE, Tumor Site: Type of Lesion: INJECTION SITE: SARCOMA): active; positive; carcinogen call (Species: RAT, Strain/Sex: F344/MALE,FEMALE, Route: SUBCUTANEOUS, Dose: 2 MG IN 0.2 ML PARAFFIN SOLN (TOTAL DOSE 4 MG/RAT), Tumor Site: Type of Lesion: INJECTION SITE: FIBROSARCOMA): active; positive; carcinogen call (Species: RAT, Strain/Sex: HOLTZMAN/MALE, Route: SUBCUTANEOUS, Dose: 0.25 ML OF 2 MG IN TRICAPRYLIN ONCE, Tumor Site: Type of Lesion: INJECTION SITE: SARCOMA): active; positive; carcinogen call (Species: RAT, Strain/Sex: LONG-EVANS/MALE, Route: INTRAMUSCULAR, Dose: 2.5 MG IN 0.5 ML SESAME OIL ONCE, Tumor Site: Type of Lesion: INJECTION SITE: SARCOMA): active; positive

Question: How did the carcinogen call (Species: MOUSE, Strain/Sex: SWISS/FEMALE, Route: INTRAPERITONEAL, Dose: 0, 100 NMOL (TOTAL DOSE) 1/7, 2/7 AND 4/7 ADMINISTERED ON DAYS 1, 8 AND 15 OF LIFE RESPECTIVELY (STUDY DURATION: 32 WK), Tumor Site: Type of Lesion: LUNG: TUMOR) turn out when `Nc1cc2c3c(ccc2c2ccccc12)[C@H](O)[C@@H](O)C=C3` was run?
Answer: Its carcinogen call is “active; positive”.

Question: And the carcinogen call (Species: MOUSE, Strain/Sex: SWISS/MALE, Route: INTRAPERITONEAL, Dose: 0, 100 NMOL (TOTAL DOSE) 1/7, 2/7 AND 4/7 ADMINISTERED ON DAYS 1, 8 AND 15 OF LIFE RESPECTIVELY (STUDY DURATION: 32 WK), Tumor Site: Type of Lesion: LUNG: TUMOR, LIVER: TUMOR)?
Answer: The carcinogen call was “active; positive”.

Question: Which results are given for `CCN(CCO)N=O`?
Answer: carcinogen call (Species: HAMSTER, Strain/Sex: SYRIAN/MALE, Route: ORAL, Dose: 0, 1000, 2000 PPM IN DIET FOR 2 WK (STUDY DURATION: 30 WK), Dose: 0, 1000, 2000 PPM IN DIET FOR 2 WK (STUDY DURATION: 30 WK)): inactive; negative; carcinogen call (Species: MOUSE, Strain/Sex: BALB/C/MALE, Route: ORAL, Dose: 0, 1000, 2000 PPM IN DRINKING WATER FOR 2 WK (STUDY DURATION: 52 WK), Dose: 0, 1000, 2000 PPM IN DRINKING WATER FOR 2 WK (STUDY DURATION: 52 WK), Tumor Site: Type of Lesion: LUNG: TUMOR): active; positive; carcinogen call (Species: MOUSE, Strain/Sex: BALB/MALE, Route: ORAL, Dose: 0, 1000, 2000 PPM IN DIET FOR 2 WK (STUDY DURATION: 30 WK), Dose: 0, 1000, 2000 PPM IN DIET FOR 2 WK (STUDY DURATION: 30 WK), Tumor Site: Type of Lesion: LUNG: TUMOR): active; positive; carcinogen call (Species: MOUSE, Strain/Sex: STRAIN-A/MALE, Route: ORAL, Dose: 0, 1000, 2000 PPM IN DIET FOR 2 WK (STUDY DURATION: 30 WK), Dose: 0, 1000, 2000 PPM IN DIET FOR 2 WK (STUDY DURATION: 30 WK), Tumor Site: Type of Lesion: LIVER: TUMOR, LUNG: TUMOR): active; positive; carcinogen call (Species: RAT, Strain/Sex: F344/MALE, Route: ORAL, Dose: 0, 1000 PPM IN DIET FOR 2 WK (STUDY DURATION: 30 WK)): inactive; negative; carcinogen call (Species: RAT, Strain/Sex: WISTAR/FEMALE, Route: ORAL, Dose: 0, 1000 PPM IN DIET FOR 2 WK (STUDY DURATION: 30 WK), Tumor Site: Type of Lesion: KIDNEY: RENAL CELL TUMOR): active; positive; carcinogen call (Species: RAT, Strain/Sex: WISTAR/MALE, Route: ORAL, Dose: 0, 1000, 2000 PPM IN DRINKING WATER FOR 2 WK (STUDY DURATION: 52 WK), Dose: 0, 1000, 2000 PPM IN DRINKING WATER FOR 2 WK (STUDY DURATION: 52 WK), Tumor Site: Type of Lesion: KIDNEY: TUMOR): active; positive; carcinogen call (Species: RAT, Strain/Sex: WISTAR/MALE, Route: ORAL, Dose: 0, 1000 PPM IN DIET FOR 2 WK (STUDY DURATION: 30 WK), Tumor Site: Type of Lesion: KIDNEY: RENAL CELL TUMOR, LIVER: TUMOR): active; positive; carcinogen call (Species: RAT, Strain/Sex: WISTAR/MALE, Route: ORAL, Dose: 0, 1000 PPM IN DRINKING WATER FOR 2 WK (STUDY DURATION: 30 WK), Tumor Site: Type of Lesion: KIDNEY: RENAL CELL TUMOR): active; positive

Question: With `Clc1cnc(Oc2ccc(Oc3ncc(Cl)cc3Cl)cc2)c(Cl)c1` as the compound, how does the carcinogen call (Species: MOUSE, Strain/Sex: C57BL/MALE, Route: INTRAGASTRIC, Dose: 0, 3 MG/KG BW IN CORN OIL 1/2 WK FOR 24 WK (STUDY DURATION: 55 WK), Tumor Site: Type of Lesion: LIVER: HEPATOCELLULAR ADENOMA OR CARCINOMA) read?
Answer: The carcinogen call was “active; positive”.

Question: What about the carcinogen call (Species: MOUSE, Strain/Sex: C57BL/MALE, Route: INTRAPERITONEAL, Dose: 0, 3 MG/KG BW IN CORN OIL 1/2 WK FOR 24 WK (STUDY DURATION: 55 WK), Tumor Site: Type of Lesion: LIVER: HEPATOCELLULAR ADENOMA OR CARCINOMA) of the same compound?
Answer: The carcinogen call was “active; positive”.

Question: What about the carcinogen call (Species: MOUSE, Strain/Sex: DBA/MALE, Route: INTRAGASTRIC, Dose: 0, 3 MG/KG BW IN CORN OIL 1/2 WK FOR 24 WK (STUDY DURATION: 55 WK)) of the same compound?
Answer: The carcinogen call was “active; positive”.

Question: And the carcinogen call (Species: MOUSE, Strain/Sex: DBA/MALE, Route: INTRAPERITONEAL, Dose: 0, 3 MG/KG BW IN CORN OIL 1/2 WK FOR 24 WK (STUDY DURATION: 55 WK), Tumor Site: Type of Lesion: LIVER: HEPATOCELLULAR ADENOMA OR CARCINOMA)?
Answer: The carcinogen call was “active; positive”.

Question: And the carcinogen call (Species: RAT, Strain/Sex: F344/MALE, Route: INTRAGASTRIC, Dose: 0, 30 MG/KG IN CORN OIL 1/2 WK FOR 71 WK (STUDY DURATION: 73 WK))?
Answer: Its carcinogen call is “inactive; negative”.

Question: What about the carcinogen call (Species: RAT, Strain/Sex: F344/MALE, Route: INTRAPERITONEAL, Dose: 0, 30 MG/KG IN CORN OIL 1/2 WK FOR 71 WK (STUDY DURATION: 73 WK)) of the same compound?
Answer: The carcinogen call was “inactive; negative”.
